Consider 6 molecules from patent publication US7208485B2, “Crystalline forms of halobetasol propionate” (Chemagis Ltd., priority 2003, dated 2007).

SMILES strings stand for the structures.

The nature of the data set: Thermal solid-state stability / phase transition on heating (hot-stage microscopy, DSC). To be noted: for temperature of solid-solid phase transition upon heating: heating at ambient pressure, observed by hot-stage microscopy and as DSC peak. In kind it is physicochemical. The procedure: Differential scanning calorimetry experiments were run on DuPont instruments model DSC 910, with software version 4.1C. Samples were analyzed inside 40 μl crimped Aluminum pan. Heating rate for all samples was 5° C./min. Since the melting of halobetasol propionate is accompanied by decomposition, the heating process was stopped slightly after the beginning of melting, in order to avoid damage to the measuring apparatus caused by decomposition products.
On the technique in general: Differential scanning calorimetry records heat flow against a reference as temperature is scanned.

As to `CCC(=O)O[C@]1(C(=O)CCl)[C@@H](C)CC2[C@@H]3C[C@H](F)C4=CC(=O)C=C[C@]4(C)[C@@]3(F)[C@@H](O)C[C@@]21C` (some centres unmarked) [Form I, halobetasol propionate Form I], the “temperature of solid-solid phase transition upon heating” value is 90 °C.

For `CCC(=O)O[C@]1(C(=O)CCl)[C@@H](C)CC2[C@@H]3C[C@H](F)C4=CC(=O)C=C[C@]4(C)[C@@]3(F)[C@@H](O)C[C@@]21C` (some centres unmarked) [Form II, halobetasol propionate Form II], where the note is “heating”, the “temperature to which heated without converting to another crystalline or amorphous form and without significant decomposition” value was ≤ 200 °C. Besides, the “transitions upon heating to melting temperature” value (hot stage microscopy) is “no detectable transitions”.

As for `CCC(=O)O[C@]1(C(=O)CCl)[C@@H](C)CC2[C@@H]3C[C@H](F)C4=CC(=O)C=C[C@]4(C)[C@@]3(F)[C@@H](O)C[C@@]21C` (some centres unmarked) [Form III, halobetasol propionate Form III], the “temperature of solid-solid phase transition upon heating” value was determined as 160 °C.

Take `CCC(=O)O[C@]1(C(=O)CCl)[C@@H](C)CC2[C@@H]3C[C@H](F)C4=CC(=O)C=C[C@]4(C)[C@@]3(F)[C@@H](O)C[C@@]21C` (some centres unmarked) [Form IV, halobetasol propionate Form IV]: the “temperature of solid-solid phase transition upon heating” value is 120–130 °C. Where the note is “heating under vacuum for about an hour or two”, the “temperature of solid-solid phase transition under vacuum” value is “about 60 °C”.

`CCC(=O)O[C@]1(C(=O)CCl)[C@@H](C)CC2[C@@H]3C[C@H](F)C4=CC(=O)C=C[C@]4(C)[C@@]3(F)[C@@H](O)C[C@@]21C` (some centres unmarked) [Form V, halobetasol propionate Form V]: the “temperature of solid-solid phase transition upon heating” value is “about 90 °C”.

Take `CCC(=O)O[C@]1(C(=O)CCl)[C@@H](C)CC2[C@@H]3C[C@H](F)C4=CC(=O)C=C[C@]4(C)[C@@]3(F)[C@@H](O)C[C@@]21C` (some centres unmarked) [Form VI, halobetasol propionate Form VI]: the “temperature of solid-solid phase transition upon heating” value was 150–170 °C.
